The source made the active and inactive calls.
Tests used:
[1] = toxicity toward cultured mammalian cells – cell-based, plate reader, cherry-pick samples, cytotoxicity control, dose response (AID 504397); type: functional
[2] = target: T1, Tyrosine-protein phosphatase non-receptor type 7 (Homo sapiens, UniProt P35236); type: functional
T1 sequence (P35236 whole entry): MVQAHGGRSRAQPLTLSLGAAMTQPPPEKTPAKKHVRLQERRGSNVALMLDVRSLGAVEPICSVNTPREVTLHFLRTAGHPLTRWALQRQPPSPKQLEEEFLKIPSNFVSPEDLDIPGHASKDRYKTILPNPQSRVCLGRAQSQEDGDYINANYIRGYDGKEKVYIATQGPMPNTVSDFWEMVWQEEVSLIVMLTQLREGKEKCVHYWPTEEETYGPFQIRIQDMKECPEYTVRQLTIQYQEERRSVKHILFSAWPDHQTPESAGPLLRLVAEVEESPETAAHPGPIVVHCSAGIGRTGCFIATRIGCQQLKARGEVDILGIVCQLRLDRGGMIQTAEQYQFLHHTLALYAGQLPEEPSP

[3] = target: Glyceraldehyde-3-phosphate dehydrogenase (Homo sapiens, UniProt P04406)
[4] = target: Heat shock cognate 71 kDa protein (Homo sapiens, UniProt P11142); test: In Vitro Hsc70 Dose Response Fluorescence Polarization Assay. [Related pubchem assays: 1072 ]
[5] = target: Heat shock 70 kDa protein 1A (Homo sapiens, UniProt P0DMV8); test: inhibition of Hsp70 binding activity – biochemical, fluorescence polarization, SAR follow-up (AID 1072)
[6] = target: T2, Dual specificity protein phosphatase 6 (Rattus norvegicus, UniProt Q64346)
[7] = target: T2, Dual specificity protein phosphatase 6; type: functional
[8] = target: Intestinal-type alkaline phosphatase (Mus musculus, UniProt P24822); test: PubChem AID 488875; type: functional
[9] = target: T3, Intestinal-type alkaline phosphatase (Homo sapiens, UniProt P09923); test: human intestinal alkaline phosphatase activators, dose response, biochemical, luminescence, uHTS hits (AID 463120); type: functional
[10] = target: T3, Intestinal-type alkaline phosphatase; test: activation of human intestinal alkaline phosphatase – biochemical, luminescent, uHTS hits, set 2, dose response (AID 488817); type: functional;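 further: potency of activators that raise enzyme activity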
[11] = target: T4, Alkaline phosphatase, tissue-nonspecific isozyme (Homo sapiens, UniProt P05186); test: activation of tissue-nonspecific alkaline phosphatase – biochemical, TNAP isozyme, human IAP uHTS hits, selectivity assay for human IAP activator project, dose response (AID 488886); type: functional;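 further: potency of compounds raising TNAP activity as a selectivity check on IAP activators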
T4 sequence (P05186 whole entry): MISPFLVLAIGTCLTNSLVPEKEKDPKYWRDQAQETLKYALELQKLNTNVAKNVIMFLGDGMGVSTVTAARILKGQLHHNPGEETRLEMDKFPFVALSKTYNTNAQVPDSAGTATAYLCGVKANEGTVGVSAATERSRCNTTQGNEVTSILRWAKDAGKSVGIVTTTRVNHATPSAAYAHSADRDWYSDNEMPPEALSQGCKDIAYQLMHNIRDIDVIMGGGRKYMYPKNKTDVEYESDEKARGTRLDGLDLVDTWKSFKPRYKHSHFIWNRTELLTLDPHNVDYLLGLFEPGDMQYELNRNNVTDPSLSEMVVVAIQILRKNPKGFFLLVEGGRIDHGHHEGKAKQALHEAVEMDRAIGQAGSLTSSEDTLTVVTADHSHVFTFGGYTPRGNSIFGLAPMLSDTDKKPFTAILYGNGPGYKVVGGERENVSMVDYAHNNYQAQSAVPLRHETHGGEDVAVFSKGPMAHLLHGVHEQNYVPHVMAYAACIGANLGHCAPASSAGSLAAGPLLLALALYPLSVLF

[12] = target: Protein phosphatase methylesterase 1 (Homo sapiens, UniProt Q9Y570); test: inhibition of PME-1 probe labeling – gel-based ABPP, IC50, set 1, late-stage follow-up (AID 463130); type: functional
[13] = target: T5, Kappa-type opioid receptor (Homo sapiens, UniProt P41145); test: kappa opioid receptor activation by imaging – image-based, set 3, SAR follow-up (AID 488833); type: functional
[14] = target: Mu-type opioid receptor (Homo sapiens, UniProt P35372); test: SAR Analysis of Agonists of the MOR Receptor using an Image-Based Assay - Set 3. [Related pubchem assays (depositor defined):AID1777, AID1785, AID1786, AID1966, AID2133, AID2136, AID2284, AID2285, AID2352]; type: functional
[15] = target: Delta-type opioid receptor (Homo sapiens, UniProt P41143); test: SAR Analysis of Agonists of the DOR Receptor using an Image-Based Assay - Set 3. [Related pubchem assays (depositor defined):AID1777, AID1786]; type: functional
[16] = target: T5, Kappa-type opioid receptor; test: SAR analysis of small molecule agonists of the kappa opioid receptor via a luminescent beta-arrestin assay - Set 3. [Related pubchem assays (depositor defined):AID1777, AID1785, AID1786, AID1966, AID2133, AID2136, AID2284, AID2500]; type: functional
[17] = target: G-protein coupled receptor 55 (Homo sapiens, UniProt Q9Y2T6); test: blockers of GPR55 signalling, imaged – imaging, image-based, counter-screen for GPR35 antagonist project, SAR follow-up (AID 2397); type: functional
[18] = target: Cytochrome P450 3A4 (Homo sapiens, UniProt P08684);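 further: CYP3A4 tested as one member of a cytochrome P450 panel screen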
Chain of Cytochrome P450 3A4 (P08684 whole entry): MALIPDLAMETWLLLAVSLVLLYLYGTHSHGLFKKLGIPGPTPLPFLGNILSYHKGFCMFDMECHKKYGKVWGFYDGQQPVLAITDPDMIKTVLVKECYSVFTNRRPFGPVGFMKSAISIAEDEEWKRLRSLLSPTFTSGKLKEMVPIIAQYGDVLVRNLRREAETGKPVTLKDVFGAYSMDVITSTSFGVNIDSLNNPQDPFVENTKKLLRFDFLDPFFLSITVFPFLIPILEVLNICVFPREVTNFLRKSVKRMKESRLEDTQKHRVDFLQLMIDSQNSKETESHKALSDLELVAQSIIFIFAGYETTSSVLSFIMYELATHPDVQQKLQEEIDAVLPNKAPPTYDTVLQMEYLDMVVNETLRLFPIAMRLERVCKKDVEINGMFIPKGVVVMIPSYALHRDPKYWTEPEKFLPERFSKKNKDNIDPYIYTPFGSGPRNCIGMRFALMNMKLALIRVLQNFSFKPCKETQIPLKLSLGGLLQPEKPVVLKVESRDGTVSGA

T2 sequence (Q64346 whole entry): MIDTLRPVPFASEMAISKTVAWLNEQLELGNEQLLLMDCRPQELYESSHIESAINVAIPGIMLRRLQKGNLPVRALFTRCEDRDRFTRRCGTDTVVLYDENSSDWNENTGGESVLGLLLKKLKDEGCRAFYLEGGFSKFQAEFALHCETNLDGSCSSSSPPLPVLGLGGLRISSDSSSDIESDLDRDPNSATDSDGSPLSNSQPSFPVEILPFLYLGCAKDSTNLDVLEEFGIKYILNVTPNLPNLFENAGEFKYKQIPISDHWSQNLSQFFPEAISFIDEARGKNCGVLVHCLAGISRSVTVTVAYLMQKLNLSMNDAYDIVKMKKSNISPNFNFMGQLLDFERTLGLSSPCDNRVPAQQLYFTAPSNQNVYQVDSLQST
T3 sequence (P09923 whole entry): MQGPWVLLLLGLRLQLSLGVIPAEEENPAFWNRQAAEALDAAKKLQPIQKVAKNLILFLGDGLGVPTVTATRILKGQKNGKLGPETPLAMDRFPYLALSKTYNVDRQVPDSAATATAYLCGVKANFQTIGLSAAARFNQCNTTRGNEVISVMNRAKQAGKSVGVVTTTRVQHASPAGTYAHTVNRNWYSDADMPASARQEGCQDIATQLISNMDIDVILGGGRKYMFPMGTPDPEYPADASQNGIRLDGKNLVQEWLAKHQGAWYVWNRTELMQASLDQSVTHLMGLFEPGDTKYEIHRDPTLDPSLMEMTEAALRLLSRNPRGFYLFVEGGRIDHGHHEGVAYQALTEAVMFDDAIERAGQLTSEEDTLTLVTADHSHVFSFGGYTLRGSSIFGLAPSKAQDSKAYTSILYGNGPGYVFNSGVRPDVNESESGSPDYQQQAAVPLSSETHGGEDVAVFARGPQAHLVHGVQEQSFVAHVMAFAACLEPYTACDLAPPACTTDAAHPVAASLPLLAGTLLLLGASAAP
T5 sequence (P41145 whole entry): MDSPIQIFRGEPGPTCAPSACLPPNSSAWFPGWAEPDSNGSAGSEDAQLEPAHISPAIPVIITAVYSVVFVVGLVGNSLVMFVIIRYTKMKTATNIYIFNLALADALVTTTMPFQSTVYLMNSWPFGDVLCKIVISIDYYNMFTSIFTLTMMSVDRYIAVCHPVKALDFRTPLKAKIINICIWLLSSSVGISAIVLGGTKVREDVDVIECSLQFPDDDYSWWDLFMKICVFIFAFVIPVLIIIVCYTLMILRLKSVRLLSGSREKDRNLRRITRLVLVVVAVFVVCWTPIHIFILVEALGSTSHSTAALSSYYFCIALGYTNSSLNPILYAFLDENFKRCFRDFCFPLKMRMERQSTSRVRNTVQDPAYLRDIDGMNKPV
Chain of Heat shock 70 kDa protein 1A (P0DMV8 whole entry): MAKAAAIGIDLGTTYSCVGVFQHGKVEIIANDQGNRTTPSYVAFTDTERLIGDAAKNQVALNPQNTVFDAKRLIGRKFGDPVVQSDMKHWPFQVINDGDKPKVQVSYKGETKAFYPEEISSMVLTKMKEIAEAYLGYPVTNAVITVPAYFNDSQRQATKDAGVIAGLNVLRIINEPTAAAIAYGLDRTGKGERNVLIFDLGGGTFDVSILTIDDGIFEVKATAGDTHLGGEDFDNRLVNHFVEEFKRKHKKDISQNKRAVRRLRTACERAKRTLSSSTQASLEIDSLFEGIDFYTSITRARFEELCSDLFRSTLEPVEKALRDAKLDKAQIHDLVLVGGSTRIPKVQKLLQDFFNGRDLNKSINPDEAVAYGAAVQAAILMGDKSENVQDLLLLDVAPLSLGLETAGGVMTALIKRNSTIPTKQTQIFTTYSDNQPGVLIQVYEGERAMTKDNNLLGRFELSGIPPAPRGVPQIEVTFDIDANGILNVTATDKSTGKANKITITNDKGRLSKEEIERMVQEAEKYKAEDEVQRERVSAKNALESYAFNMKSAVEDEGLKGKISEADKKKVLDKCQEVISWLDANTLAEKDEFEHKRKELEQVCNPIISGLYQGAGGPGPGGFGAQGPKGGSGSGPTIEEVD
Chain of G-protein coupled receptor 55 (Q9Y2T6 whole entry): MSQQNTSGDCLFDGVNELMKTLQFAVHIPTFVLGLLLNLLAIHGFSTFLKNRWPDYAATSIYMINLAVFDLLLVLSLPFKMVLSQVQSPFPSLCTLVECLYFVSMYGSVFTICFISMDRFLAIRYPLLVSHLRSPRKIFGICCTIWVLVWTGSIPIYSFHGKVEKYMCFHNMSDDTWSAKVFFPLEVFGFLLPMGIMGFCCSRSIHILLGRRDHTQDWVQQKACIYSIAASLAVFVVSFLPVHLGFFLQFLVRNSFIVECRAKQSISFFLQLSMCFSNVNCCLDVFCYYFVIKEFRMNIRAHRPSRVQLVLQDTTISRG
Chain of Protein phosphatase methylesterase 1 (Q9Y570 whole entry): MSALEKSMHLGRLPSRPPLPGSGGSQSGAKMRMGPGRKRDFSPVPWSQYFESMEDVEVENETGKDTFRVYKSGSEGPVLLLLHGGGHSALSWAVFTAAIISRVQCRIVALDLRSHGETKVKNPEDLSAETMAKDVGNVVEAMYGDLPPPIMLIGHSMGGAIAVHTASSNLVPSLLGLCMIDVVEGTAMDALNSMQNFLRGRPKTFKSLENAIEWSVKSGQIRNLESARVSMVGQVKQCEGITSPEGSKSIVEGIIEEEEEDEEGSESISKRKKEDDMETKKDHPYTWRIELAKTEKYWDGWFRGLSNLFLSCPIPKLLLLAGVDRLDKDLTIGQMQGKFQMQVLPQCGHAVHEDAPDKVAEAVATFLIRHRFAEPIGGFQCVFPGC
Chain of Glyceraldehyde-3-phosphate dehydrogenase (P04406 whole entry): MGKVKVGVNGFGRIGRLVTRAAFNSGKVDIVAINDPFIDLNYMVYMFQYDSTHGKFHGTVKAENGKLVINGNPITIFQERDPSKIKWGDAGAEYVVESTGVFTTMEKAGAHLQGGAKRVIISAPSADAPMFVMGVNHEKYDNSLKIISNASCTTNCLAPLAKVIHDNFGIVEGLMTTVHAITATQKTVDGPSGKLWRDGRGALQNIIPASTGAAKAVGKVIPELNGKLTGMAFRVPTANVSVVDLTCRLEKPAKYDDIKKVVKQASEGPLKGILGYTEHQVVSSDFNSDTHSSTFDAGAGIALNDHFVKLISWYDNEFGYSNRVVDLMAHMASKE
Chain of Delta-type opioid receptor (P41143 whole entry): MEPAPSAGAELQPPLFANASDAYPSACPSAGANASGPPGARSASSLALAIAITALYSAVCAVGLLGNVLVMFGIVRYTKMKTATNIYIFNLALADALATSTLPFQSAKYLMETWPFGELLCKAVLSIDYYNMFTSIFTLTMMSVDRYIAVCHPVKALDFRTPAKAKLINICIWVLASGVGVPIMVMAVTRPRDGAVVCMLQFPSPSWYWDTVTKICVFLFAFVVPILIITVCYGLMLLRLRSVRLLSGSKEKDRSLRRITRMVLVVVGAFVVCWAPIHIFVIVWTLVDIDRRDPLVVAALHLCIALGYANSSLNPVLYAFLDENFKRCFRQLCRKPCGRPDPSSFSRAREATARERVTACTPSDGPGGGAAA
Chain of Intestinal-type alkaline phosphatase (Mus musculus, UniProt P24822) (P24822 whole entry): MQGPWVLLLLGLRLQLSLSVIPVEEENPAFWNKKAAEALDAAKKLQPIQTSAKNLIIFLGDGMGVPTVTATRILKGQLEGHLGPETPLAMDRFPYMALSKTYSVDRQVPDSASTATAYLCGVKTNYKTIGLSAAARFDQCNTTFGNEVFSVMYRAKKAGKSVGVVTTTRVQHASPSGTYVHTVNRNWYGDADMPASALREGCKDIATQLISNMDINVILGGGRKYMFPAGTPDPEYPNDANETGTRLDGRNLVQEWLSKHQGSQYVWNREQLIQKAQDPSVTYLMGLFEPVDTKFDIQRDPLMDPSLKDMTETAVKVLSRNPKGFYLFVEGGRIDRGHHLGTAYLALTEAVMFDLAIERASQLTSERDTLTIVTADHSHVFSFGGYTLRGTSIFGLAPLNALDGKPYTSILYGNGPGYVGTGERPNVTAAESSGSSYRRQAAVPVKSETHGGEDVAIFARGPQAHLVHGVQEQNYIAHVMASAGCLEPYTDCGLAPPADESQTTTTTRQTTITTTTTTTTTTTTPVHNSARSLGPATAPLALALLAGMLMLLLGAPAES
Chain of Mu-type opioid receptor (P35372 whole entry): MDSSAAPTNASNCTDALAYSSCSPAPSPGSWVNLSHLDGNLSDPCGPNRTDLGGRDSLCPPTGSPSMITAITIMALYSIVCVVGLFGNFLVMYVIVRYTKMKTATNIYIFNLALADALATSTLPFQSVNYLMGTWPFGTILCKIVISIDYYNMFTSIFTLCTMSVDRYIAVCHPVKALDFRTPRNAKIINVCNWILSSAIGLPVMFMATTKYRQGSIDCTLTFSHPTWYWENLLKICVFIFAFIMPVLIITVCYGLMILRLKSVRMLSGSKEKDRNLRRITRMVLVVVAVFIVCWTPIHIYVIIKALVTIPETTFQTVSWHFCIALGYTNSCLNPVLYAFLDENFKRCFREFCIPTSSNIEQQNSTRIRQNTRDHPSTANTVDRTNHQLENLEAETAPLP

In the case of `COc1ccccc1/C=C/C=N/NC(=O)CN1CCN(S(=O)(=O)c2ccc(C)cc2)CC1`, the AC50 [1] is reported as 132 µM (active).

For `Cc1ccc(C)c2c1NC(C(=O)O)C1CC=CC21` (stereo not drawn), the IC50 [2] was > 100 µM (not active), the IC50 [3] was > 100 µM (not active) and the IC50 [4] was > 100 µM (not active). For the same compound, the IC50 [5] was > 100 µM (not active), the IC50 [6] was > 100 µM (inactive) and the IC50 [7] was > 100 µM (inactive).

For `CCOc1cccc(-c2nc(C(N)=O)c3nc(O)n(-c4cccc(Cl)c4)c3n2)c1O`, the EC50 [8] was > 100 µM (inactive), the EC50 [9] was 4.9 µM (active) and the EC50 [10] was 3.66 µM (active). For the same compound, the EC50 [11] was 2.41 µM (active).

In the case of `COC(=O)N1C(=O)[C@@](CC(C)C)(c2ccccc2)N1C(=O)OC`, the IC50 [12] is reported as 0.227 µM (active).

For `CC(C)c1ccc(CSc2nnc(-c3ccccn3)n2Cc2ccco2)cc1`, the EC50 [13] was 2.84 µM (active), the EC50 [14] was > 32 µM (inactive) and the EC50 [15] was > 64 µM (inactive). The EC50 [16] was 5.97 µM (active).

For `COc1ccc(-c2nnc(-c3cccnc3)o2)cc1`, the IC50 [17] was > 32 µM (inactive) and the AC50 [18] was 1.58 µM (inconclusive).

— ChEMBL document CHEMBL1201862, “PubChem BioAssay data set” (2004)
